From publication PMC7705960, “Discovery of a Beetroot Protease Inhibitor to Identify and Classify Plant-Derived Cystine Knot Peptides” (Journal of Natural Products, 2020)
Values joined by “and” are separate entries in the source; they are usually repeats but may differ in a detail not shown here. Equal values may be shown once. Read-outs that look alike come from different tables or passages of the source. Positions of bridges follow the written chain, without caps; N, C: chain ends. Residues, ends and D or L forms follow the SMILES beside them.

T1: human POP (Homo sapiens, UniProt P48147)
T1 construct: The full-length cDNA was cloned into the BamHI and EcoRI cloning sites of the commercially available expression plasmid pGEX-6P1; GST (from pGEX-6P1) (N, cleaved yes); made in house; host or cells: E. coli BL21
T1 sequence (P48147 1-710): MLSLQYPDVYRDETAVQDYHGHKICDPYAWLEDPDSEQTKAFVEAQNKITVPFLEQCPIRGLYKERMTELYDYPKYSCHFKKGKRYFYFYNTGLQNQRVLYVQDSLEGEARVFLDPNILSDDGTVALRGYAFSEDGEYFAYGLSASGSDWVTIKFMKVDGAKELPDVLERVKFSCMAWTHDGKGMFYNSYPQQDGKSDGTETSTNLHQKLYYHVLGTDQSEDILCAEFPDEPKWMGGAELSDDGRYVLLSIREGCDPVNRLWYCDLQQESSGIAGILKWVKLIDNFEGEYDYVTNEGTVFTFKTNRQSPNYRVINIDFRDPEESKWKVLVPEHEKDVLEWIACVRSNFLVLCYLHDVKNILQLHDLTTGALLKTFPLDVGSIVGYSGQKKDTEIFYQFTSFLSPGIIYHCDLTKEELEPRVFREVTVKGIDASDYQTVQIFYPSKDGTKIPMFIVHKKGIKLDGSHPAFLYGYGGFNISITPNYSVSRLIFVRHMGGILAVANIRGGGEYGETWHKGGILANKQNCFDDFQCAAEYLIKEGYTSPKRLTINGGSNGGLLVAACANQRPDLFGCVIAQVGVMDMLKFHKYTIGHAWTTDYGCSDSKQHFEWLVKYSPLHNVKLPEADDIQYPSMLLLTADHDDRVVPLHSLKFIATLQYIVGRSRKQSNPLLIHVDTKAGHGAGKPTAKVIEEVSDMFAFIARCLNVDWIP

T2: Bovine β-trypsin (Bos taurus, UniProt P00760)
T2 sequence (P00760 24-246): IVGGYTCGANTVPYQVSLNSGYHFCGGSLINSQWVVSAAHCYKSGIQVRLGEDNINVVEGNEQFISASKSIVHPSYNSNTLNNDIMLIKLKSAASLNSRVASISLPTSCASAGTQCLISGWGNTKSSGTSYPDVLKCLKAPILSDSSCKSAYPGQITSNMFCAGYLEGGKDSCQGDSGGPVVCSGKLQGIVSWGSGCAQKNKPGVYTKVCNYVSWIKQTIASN

B1: Kunitz-type soybean trypsin inhibitor: well-characterized Kunitz-type soybean trypsin inhibitor, used as control (protein, UniProt P01070 25-205, looked up)
Trypsin inhibitor A: DFVLDNEGNPLENGGTYYILSDITAFGGIRAAPTGNERCPLTVVQSRNELDKGIGTIISSPYRIRFIAEGHPLSLKFDSFAVIMLCVGIPTEWSVVEDLPEGPAVKIGENKDAMDGWFRLERVSDDEFNNYKLVFCPQQAEDDKCGDIGISIDHDDGTRRLVVSKNKPLVVQFQKLDKESL

Assays:
human POP = molecular target: T1, human POP; assay: Prolyl oligopeptidase (POP) inhibition assay (fluorescence, Z-Gly-Pro-AMC); assay type: biochemical; conditions: synthetic bevuTI-I; recombinant human POP 50 ng, Z-Gly-Pro-AMC 45 μM, 20 mM HEPES pH 7.4, 150 mM NaCl, 1 mM EDTA, 0.5 mM DTT, ex 360/em 450 nm; mean ± SD of three biological replicates
Source text: As it was previously reported, plant cystine knot peptides belonging to the cyclotide family have the ability to inhibit human prolyl endopeptidase.[33] Thus, we were interested whether the bevuTI-I was also able to inhibit this enzyme. Like psysol-2, bevuTI-I has three proline residues and presumably the same cysteine connectivity.
Recombinant human POP (NM_002726.4) was produced in E. coli BL21 (New England Biolabs, MA, USA). The full-length cDNA was cloned into the BamHI and EcoRI cloning sites of the commercially available expression plasmid pGEX-6P1 by a customized manufacturer service from GenScript (Leiden, The Netherlands). […] The protein concentration of the eluate was determined by the bicinchoninic acid assay (ThermoFisher Scientific), and aliquots of stock protease in storage buffer (including 20% glycerol) were kept at −80 °C. […] Enzyme activity was measured by fluorescence signal as a result of free fluorophore from the Z-Gly-Pro-AMC substrate with an excitation of 360 ± 20 nm and emission of 450 ± 20 nm. Kinetic inhibition data were recorded in 5 min intervals, and the amount of inhibition was calculated from the steepness of the linear initial velocity. […] Concentration–response experiments were evaluated with a fitted nonlinear regression function in GraphPad Prism.

Bovine β-trypsin = molecular target: T2, Bovine β-trypsin; assay: Trypsin inhibition assay (colorimetric, benzoylarginine-4-nitroanilide); assay type: biochemical
Method: Based on the classification of bevuTI-I as putative trypsin inhibitor of the M. jalapa trypsin inhibitor family, enzymatic inhibition assays were performed.[33] Bovine β-trypsin and bevuTI-I were used in a colorimetric trypsin inhibition assay to measure concentration-dependent inhibition.
The trypsin inhibition assay was performed in 96-well microtiter plates. To 140 μL of a 20 mM Tris-HCl buffer (pH 8.0) was added 20 μL of inhibitor (dissolved in buffer)/buffer (negative control). Afterward, 20 μL of bovine trypsin (0.125 mg/mL, Sigma-Aldrich) was added, and the plate was incubated for 10 min at 22 °C. A volume of 20 μL of benzoylarginine-4-nitroanilide hydroxychloride (Bachem, Bubendorf, Switzerland) dissolved in 20% DMSO at a concentration of 900 μM was added automatically with the dispenser of the Synergy H4 Hybrid reader (BioTek, VM, USA). The rate of enzymatic reaction with different concentrations of inhibitor was measured for 1 h every 5 min at a wavelength of 410 nm. For calculations, the linear portion of data, corresponding to the initial rate of reaction, was used. The highest rate was set to 100% activity. A nonlinear regression (log inhibitor vs normalized response) was performed with GraphPad Prism version 8.0.0 for Windows (GraphPad Software, CA, USA). The top and bottom parameters were set to 100% and 0%, respectively.

Molecule	IC50 (human POP) [nM]	IC50 (Bovine β-trypsin)	IC50 (Bovine β-trypsin; control inhibitor (Glycine max Kunitz-type), bovine trypsin, 20 mM Tris-HCl pH 8.0, 10 min pre-incubation at 22 °C, 410 nm, read-out: IC50, trypsin inhibition) [nM]
CC[C@H](C)[C@@H]1NC(=O)[C@H](CCCNC(=N)N)NC(=O)[C@H](CC(C)C)NC(=O)[C@H](Cc2c[nH]c3ccccc23)NC(=O)[C@H](CCC(N)=O)NC(=O)[C@H](Cc2c[nH]cn2)NC(=O)[C@@H]2CCCN2C(=O)[C@H](C(C)C)NC(=O)[C@@H]2CSSC[C@@H]3NC(=O)[C@H]([C@@H](C)CC)NC(=O)[C@H]([C@@H](C)O)NC(=O)CNC(=O)[C@H](CO)NC(=O)[C@@H]4CCCN4C(=O)[C@H]([C@@H](C)O)NC(=O)[C@@H](N)CSSC[C@H](NC(=O)[C@H](CSSC[C@@H](C(=O)N[C@@H](C)C(=O)O)NC(=O)[C@H](C(C)C)NC(=O)[C@H](Cc4ccccc4)NC1=O)NC(=O)[C@H](CCC(N)=O)NC(=O)[C@H](CCC(=O)O)NC(=O)[C@@H]1CCCN1C(=O)[C@H](C)NC(=O)[C@H](CCC(=O)O)NC(=O)[C@@H]1CCCN1C(=O)[C@H](CO)NC3=O)C(=O)N[C@@H](CO)C(=O)N[C@@H](CC(N)=O)C(=O)N[C@@H](CO)C(=O)N2 [bevuTI-I, Beta vulgaris trypsin inhibitor I] (H-CTPSGTICSPEAPEQCCSNSCVPHQWLRIFVCA-OH; disulfide 1-17, 8-21, 16-32)	11000 ± 5300	471 nM and 568 nM	–
B1	–	–	198 ± 72
